According to US20250073185A1, “Composition Including Benzylaminoethanol Derivative as Active Ingredient for Prevention or Treatment of Metabolic Disease” (JLBIOTHERAPEUTICS, priority 2021, published 2025):

Tested on: 3T3-L1 cells
Assay: Cytotoxicity measurement (WST assay, EZ-Cytox)
Format: cell-based
Settings: 3T3-L1 cells, 0.1, 1, 5, 10 and 25 μM, 48 hours
Method: After 48 hours, 10 μl of EZ-Cytox was added to each cell culture which was then incubated for 30 minutes, and the absorbance at 450 nm was measured using a microplate reader.

Compound: OCCNCc1cc(Br)ccc1OCc1ccc(F)c(C(F)(F)F)c1 [AZ1, 2-(5-bromo-2-(4-fluoro-3-(trifluoromethyl)benzyloxy)benzylamino)ethanol]
- cytotoxicity (cell viability vs untreated cells): did not exhibit cytotoxicity
